Patent US5672603A, “Apoptosis regulating composition” (Otsuka Pharmaceutical Co., Ltd., priority 1991, dated 1997)
“And” between values parts separate entries of the source, which are not always exact repeats. Equal values may be shown once. “Also recorded” adds a separate entry of the source.

Tests used:
[1] = system: Human promyelocytic leukemia cells (HL-60); test: Cancer cell growth inhibition, HL-60 (long-term culture, trypan blue viable count); assay type: cell-based; settings: control 100
From the text: The human promyelocytic leukemia cell line HL-60 is a human leukemia cell line established by Robert Gallo et al. and typical properties thereof are described in the literature [Gallo, R. C. et al., Blood, 54, 713 (1979)]. It is available from the American Type Culture Collection (ATCC) under the accession number ATCC No. CCL-240.
The concentration of HL-60 cells was adjusted to 1×10^5 cells/ml using RPMI-1640 medium (GIBCO) supplemented with 10% of FCS (fetal calf serum; GIBCO).
Test compound 1 was dissolved in acetic acid, followed by dilution with the same medium as used above in (1) and neutralization with 2N NaOH to give final concentrations of 100 μg/ml, 10 μg/ml and 1.0 μg/ml.
a) The test compound solutions prepared as described above under (3) were added to the HL-60 cell suspension prepared as described above under (1) to final concentrations of 10 μg/ml and 1.0 μg/ml. Using 12-well culture plates (Costar), cultivation was conducted in a 5% carbon dioxide gas incubator maintained at 37° C. for 3 to 4 days. The test compound-free medium was used as a control. Thereafter, the cell suspension in each well was sampled and mixed with 0.2% trypan blue-containing phosphate buffer, and unstained viable cells were counted under a microscope. Based on the counting result, the viable cell concentration was readjusted to 1×10^5 cells/ml, and cultivation was continued under the same conditions.

Reverse transcriptase = test: Antiretrovirus activity test: reverse transcriptase activity of virus from culture supernatant; assay type: cell-based, HIV; settings: for Reverse transcriptase activity (cpm): control 1316
Procedure: Human transformed normal T cells (MT-4) [Nagumo, T. and Hoshino, H., Jpn. J. Cancer Res. 79, 9-11 (1988)] were used to prepare a suspension of 2×10^5 cells/ml in RPMI-1640 medium (Gibco) supplemented 10% FCS (Gibco).
Compound 1 was dissolved in hydrochloric acid, diluted in the same medium as above, neutralized with 2N NaOH and adjusted to concentrations of 1 μg/ml, 10 μg/ml, 30 μg/ml and 100 μg/ml.
The cells prepared in (a) above and the test compound (final concentration: 1 μg/ml, 10 μg/ml, 30 μg/ml or 100 μg/ml) prepared in (b) above were placed in the wells of a 12-well culture plate (Costar). Then, 50 μl/well of HIV suspension was added to infect the cells in each well, followed by 3-day incubation at 37° C. in a 5% carbon dioxide incubator. As a control, the medium without addition of the test compound was used. After completion of incubation, the cell suspension in each well was taken and viable cells were counted.
The cell suspension in each well was then centrifuged (1500 rpm×5 min) and 750 μl of culture supernatant was obtained.
The culture supernatant, 750 μ, obtained above was placed in an Eppendorf tube (1.8 ml) and 4 M NaCl and PEG-6000 (Sigma) were added. The mixture was allowed to react at 0° C. for 2 hours to precipitate the virus and the virus was harvested by centrifugation (15000 rpm×20 min). To this virus pellet were added solution 1 [50% glycerol (Wako Pure Chemical), 25 mM Tris-HCl (pH 7.5), 50 mM KCl 0.025% Triton X-100 (Sigma) and 5 mM DTT (Sigma)] and solution II [0.9% Triton X-100 (Sigma) and 1.5M KCl] for lysis at 0° C. for 30 min. To the resultant 10-μl virus solution were added 5 mg/ml bovine serum albumin (BSA, Sigma), 1 M Tris-HCl, 100 mM DTT (Sigma), 1M KCl, 10 mM Poly A (Sigma), 0.15 mM TTP (Sigma), 200 mM MgCl2, 0.15 mM Oligo(dT) (NEN) and [^3 H]-TTP (NEN) and the mixture was allowed to react at 37° C. for 1 hour. The reaction was then stopped by placing the mixture in ice and the whole amount was spotted on a membrane filter (DE-81 Filter, Whatman) and dried. After drying, the filter was washed three times with 0.5 M Na2 HPO4 and rinsed in ethanol and dried. The radioactivity of [^3 H]-TTP taken into DNA on the membrane was counted with a liquid scintillation counter to determine reverse transcriptase activity (unit, cpm).

anti-platelet antibodies = test: Assay of anti-platelet antibodies in autoimmune disease mice; assay type: in vivo, W/BF1 mice; settings: for Anti-platelet antibodies, % positive, Mean ± SE / Anti-platelet antibodies, % positive, individual mice: 20 weeks of age; for Anti-platelet antibodies, % positive, Mean ± SE: untreated 19.6 ± 5.5
Procedure: W/BF1 :(NZW×BXSB)F1 mice were used at the age of 14 weeks (purchased from Kiwa Experimental Animal). Groups of 10 mice were used in each experiment.
Compound 1 (Lot No. 9D87M) was used as suspended in a 0.5% solution of carborymethylcellulose (CMC, Cellogan). Compound 1 was administered to mice by oral garage in doses of 100 and 300 mg/kg body weight/day for 6 weeks from 14 weeks of age to 20 weeks of age according to the 5-day administration and 2-day cessation schedule. As a control, an untreated group was provided. […] Statistic analysis was performed by the generalized Wilcoxon test with respect to the untreated group.
(3) Oyaizu et al. have reported that in W/BF1 mice, thrombocytopenia is associated with the appearance of anti-platelet antibodies.
The platelets collected from Balb/c mice and the plasma collected from W/BF1 mice treated up to the age of 20 weeks were incubated together at room temperature for 30 minutes. The mixture was washed twice and allowed to react with FITC-labeled anti-mouse IgG (Tago, Code No. 6250), and after staining, anti-platelet antibodies were assayed with an FACS analyzer (EPICS-Profile II, Coulter). The negative control was set so that the plasma from Balb/c mice was 98% negative. The positive rate of each sample was determined.

PC12 cells = test: Effect on PC12 cells (morphology, phase contrast microscope)
Procedure: PC12 cells subcultured in Dulbecco's modified Eagle's medium (D-MEM) supplemented with 5% heat-inactivated (56° C., 30 minutes) horse serum and 10% fetal calf serum (FCS) were transferred onto collagen-coatedplastic Petri dishes (35 mm in diameter) at a concentration of 6×10^4 cells/3 ml medium.

HL-60 cells = test: Reactivity of HL-60 cells with anti-CD33 monoclonal antibody My9 (flow cytometry); assay type: cell-based, human; settings: day 27, control 97
Procedure: The monoclonal antibody My9 (Coulter) capable of specifically reacting with immature granulocytes was dissolved by adding 0.5 ml of distilled water per vial.
HL-60 cells prepared as described above under (1) were cultivated in the same manner as in a). On day 27, the cell concentration was adjusted to 1×10^6 cells/ml and 100 μl of each aliquot was reacted with 10 μl of fluorescein (FITC)-labeled My9, followed by flow cytometry.

## COc1ccc(C(=O)N2CCN(c3ccc4c(c3)CCC(=O)N4)CC2)cc1OC [Compound 1, 6-[4-(3,4-Dimethoxybenzoyl)-1-piperazinyl]-3,4-dihydrocarbostyril]
[1]; HL-60, 648 h, on day 27, 1.0 μg/ml
  activity at 1 µg/mL: 76 ± 3.8%
[1]; HL-60, 648 h, on day 27, 10 μg/ml
  activity at 10 µg/mL: 54 ± 2.6%
[1]; HL-60, 792 h, on day 33, 1.0 μg/ml
  activity at 1 µg/mL: 0%
[1]; HL-60, 792 h, on day 33, 10 μg/ml
  activity at 10 µg/mL: 0%
Reverse transcriptase; 1 μg/ml
  Reverse transcriptase activity (cpm): 1423 cpm
Reverse transcriptase; 10 μg/ml
  Reverse transcriptase activity (cpm): 1494 cpm
Reverse transcriptase; 30 μg/ml and 100 μg/ml
  Inhibition of reverse transcriptase activity (in words): inhibits reverse transcriptase activity remarkably
Reverse transcriptase; 30 μg/ml
  Reverse transcriptase activity (cpm): 372 cpm
Reverse transcriptase; 100 μg/ml
  Reverse transcriptase activity (cpm): 898 cpm
anti-platelet antibodies; 100 mg/kg/day
  Anti-platelet antibodies, % positive, Mean ± SE: 13.3 ± 2.7% and 13.2±2.7%
anti-platelet antibodies; 100 mg/kg, mouse Nos. 1-10
  Anti-platelet antibodies, % positive, individual mice: 3.7% and 13.5% and 3.1% and 17.3% and 21.5% and 16.8% and 18.2% and 7.8% and 8.5% and 27.1%
anti-platelet antibodies; 300 mg/kg/day
  Anti-platelet antibodies, % positive, Mean ± SE: 10.7 ± 2.2%
anti-platelet antibodies; 300 mg/kg, mouse Nos. 1-4, 6-9
  Anti-platelet antibodies, % positive, individual mice: 2.3% and 11.4% and 14.1% and 6.0% and 16.4% and 12.1% and 4.1% and 19.5%
anti-platelet antibodies; 100 and 300 mg/kg/day
  Inhibition of anti-platelet antibodies (in words): dose-dependent inhibition of anti-platelet antibodies
PC12 cells; 30 μg/ml, day 3
  Cells with morphological changes induced: 30-50 % of the total cell population
PC12 cells; 30 μg/ml, most prominent with FCS 0.3%, day 3
  Formation of nerve fiber-like processes: formation of nerve fiber-like processes; also recorded: formation of nerve-like processes is observed
PC12 cells; with NGF, 0.3% FCS, vs Compound 1 or NGF alone
  Elongation of the process, combination of Compound 1 and NGF: promotes elongation of the process as compared with Compound 1 or NGF alone
HL-60 cells; 1.0 μg/ml
  Positive rate (%), anti-CD33 My9: 90%
HL-60 cells; 10 μg/ml
  Positive rate (%), anti-CD33 My9: 77%
